In one series the test system is HBV. Description: In-vitro anti-HBV activity in stable HBV-producing cell line (HepG2.2.15), HBV DNA in culture fluid by qPCR. The series is classed as cell-based. Conditions: Hepatitis B virus, 168 h; HepG2.2.15 cells, HBV DNA in culture media on day 7, qPCR. As for the experimental part:
Specific procedures are as follows:
HepG2.2.15 cells were seeded into each well of 96-well plates, 40,000 cells per well. Cells were treated with cell culture medium containing compounds with different concentrations 24 hours after cell seeding. The final concentration of each compound was 16.4 μM in each well and each compound was diluted to desired concentration using 3-fold gradient dilution protocol, 9 diluted points in duplicate. The culture mediums containing the compounds were refreshed on day 4 post cell seeding. Culture media were collected from the HepG2.2.15 plates on day 7 post cell seeding followed by HBV DNA extraction.
HBV DNA extraction: The HBV DNA extraction was performed using QIAamp 96 DNA Blood Kit (QIAGEN 51161).
PCR for quantification: PCR mix was prepared according to PCR system. PCR mix was dispensed to 96-well optical reaction plates (special for quantification). The standard diluted proportionally was added. Then the sample was added; The plates were sealed with optical adhesive film; PCR system was performed according to programs.
Percentage of HBV inhibition of DNA replication by compound was calculated using the following equation: % Inh.=[1-HBV DNA quantity of sample/HBV DNA quantity of DMSO control]*100.
Calculating EC50 value of compounds to HBV replication: the EC50 values were calculated based on “four-parameter logistic equation” and using GraphPad Prism 5 analysis software.

Series [1] is described as follows: Test compounds' PK assay in ICR mice. Conditions: for AUC(0-t): AUC in 0-24 hours; for AUC(0-inf): AUC in 0 hour to infinite time; for Vd: read-out: Vss. The series is classed as in vivo. As to the method:
The test compounds were poured into ICR mice stomach through mouth with 10 mg/kg or 5 mg/kg, or administered 2 mg/kg to ICR mice by tail-intravenous injection. Blood sample of orbital vein was taken at 0.083, 0.25, 0.5, 1, 2, 4, 6, 8 and 24 hours after administration, and collected in anticoagulation tube added with EDTA-K2. The test compounds were extracted from plasma samples and chromatographed on a tandem mass spectrometer. Quantitation was performed using multiple reaction monitoring (MRM). Pharmacokinetic parameters were calculated using WinNonlin 6.3 software with non compartment model.

[2] abbreviates: ICR mice, po 5 mg/kg vs iv 2 mg/kg, calculated by the AUClast.
Where [3] appears, read: mouse, plasma, ICR mice, iv, 2 mg/kg.
Where [4] appears, read: mouse, plasma, ICR mice, iv, 2 mg/kg, read-out: Cmax.
[5] abbreviates: mouse, plasma, ICR mice, iv, 2 mg/kg, read-out: Tmax.
Setting [6] is: mouse, plasma, ICR mice, po, 5 mg/kg.
Setting [7] is: mouse, plasma, ICR mice, po, 5 mg/kg, read-out: Cmax.
[8] abbreviates: mouse, plasma, ICR mice, po, 5 mg/kg, read-out: Tmax.

Like-named read-outs stand apart in the source and are kept apart here.

The term EC50 denotes the concentration that produces a half-maximal response. The low end stands for a more potent agent, the high end for a less potent agent. In the series with HBV, `COC(=O)C1=C(CN2CC(F)(F)C[C@@H]2CCC(=O)O)NC(c2nccs2)=N[C@H]1c1ccc(F)cc1Cl` [Example 20, 3-((S)-1-(((R)-6-(2-chloro-4-fluorophenyl)-5-(methoxycarbonyl)-2-(thiazol-2-yl)-3,6-dihydropyrimidin-4-yl)methyl)-4,4-difluoropyrrolidin-2-yl)propanoic acid] came in with an EC50 of 17 nM.

As for `COC(=O)C1=C(CN2CC(F)(F)C[C@H]2CCC(=O)O)NC(c2nccs2)=N[C@H]1c1ccc(F)cc1Br` [Example 14, 3-((R)-1-(((R)-6-(2-bromo-4-fluorophenyl)-5-(methoxycarbonyl)-2-(thiazol-2-yl)-3,6-dihydropyrimidin-4-yl)methyl)-4,4-difluoropyrrolidin-2-yl)propanoic acid], the EC50 with HBV amounted to 80 nM.

With `CCOC(=O)C1=C(CN2CCS(=O)(=O)C[C@H]2C(=O)O)NC(c2nccs2)=N[C@H]1c1ccc(F)cc1Br` [Example 2, (R)-4-(((R)-6-(2-bromo-4-fluorophenyl)-5-(ethoxycarbonyl)-2-(thiazol-2-yl)-3,6-dihydropyrimidin-4-yl)methyl)thiomorpholine-3-carboxylic acid 1,1-dioxide], the EC50 in the series with HBV is 6630 nM.

In turn, `CCOC(=O)C1=C(CN2CC(F)(F)C[C@H]2CCC(=O)O)NC(c2nccs2)=N[C@H]1c1ccc(Cl)cc1Cl` [Example 13, 3-((R)-1-(((R)-6-(2,4-dichlorophenyl)-5-(ethoxycarbonyl)-2-(thiazol-2-yl)-3,6-dihydropyrimidin-4-yl)methyl)-4,4-difluoropyrrolidin-2-yl)propanoic acid] showed an EC50 in the series with HBV of 64 nM.

In the series with HBV, `COC(=O)C1=C(CN2CC(F)(F)C[C@H]2CCC(=O)O)NC(c2nccs2)=N[C@H]1c1ccc(Cl)cc1Cl` [Example 16, 3-((R)-1-(((R)-6-(2,4-dichlorophenyl)-5-(methoxycarbonyl)-2-(thiazol-2-yl)-3,6-dihydropyrimidin-4-yl)methyl)-4,4-difluoropyrrolidin-2-yl)propanoic acid] came in with an EC50 of 62 nM.

With `COC(=O)C1=C(CN2CC(F)(F)C[C@@H]2CCC(=O)O)NC(c2nccs2)=N[C@H]1c1ccc(Cl)cc1Cl` [Example 22, 3-((S)-1-(((R)-6-(2,4-dichlorophenyl)-5-(methoxycarbonyl)-2-(thiazol-2-yl)-3,6-dihydropyrimidin-4-yl)methyl)-4,4-difluoropyrrolidin-2-yl)propanoic acid], a half-maximal effect in the series on HBV (EC50) was put at 11 nM.

The compound `COC(=O)C1=C(CN2CC(F)(F)C[C@H]2CCC(=O)O)NC(c2nccs2)=N[C@H]1c1ccc(F)cc1Cl` [Example 15, 3-((R)-1-(((R)-6-(2-chloro-4-fluorophenyl)-5-(methoxycarbonyl)-2-(thiazol-2-yl)-3,6-dihydropyrimidin-4-yl)methyl)-4,4-difluoropyrrolidin-2-yl)propanoic acid] came in with an EC50 in the series on HBV of 94 nM.

`CCOC(=O)C1=C(CN2CC(F)(F)C[C@@H]2CCC(=O)O)NC(c2nccs2)=N[C@H]1c1ccc(F)cc1Br` [Example 17, 3-((S)-1-(((R)-6-(2-bromo-4-fluorophenyl)-5-(ethoxycarbonyl)-2-(thiazol-2-yl)-3,6-dihydropyrimidin-4-yl)methyl)-4,4-difluoropyrrolidin-2-yl)propanoic acid] displayed an EC50 in the series on HBV of 12 nM.

A word on the Cmax: it is the peak of the concentration-time curve. The term Tmax denotes the time at which the peak concentration occurs. What is called Vss is a proportionality between amount in the body and measured concentration, not a real space. High values mean wide distribution into tissue, low ones little distribution into tissue. As to `CCOC(=O)C1=C(CN2CCOCC2)NC(c2nccs2)=NC1c1ccc(F)cc1Br` (centres unmarked) [R, Ethyl4-(2-bromo-4-fluorophenyl)-2-(thiazol-2-yl)-6-((4-morpholino)methyl)-1,4-dihydropyrimidine-5-carboxylate, reference compound], the F in series [1] (mouse, in vivo) was 7.75%. In series [1] (mouse, in vivo, iv, 2 mg/kg), this compound displayed an AUCINF of 381.2 ng·h/mL, an AUClast of 379.13 ng·h/mL, a CL of 5.25 L/h/kg and a Cmax of 654.37 ng/mL. In series [1] (mouse, in vivo, iv, 2 mg/kg), the Tmax is 4.98 min, the Vss came to 7.91 L/kg and the t1/2 is listed as 2.87 h. For the same compound, in series [1] (mouse, in vivo, po, 10 mg/kg), the AUCINF amounted to 147.71 ng·h/mL, the AUClast was 145.05 ng·h/mL, the Cmax came to 78.2 ng/mL and the Tmax stood at 15 min. This compound also displayed a t1/2 in series [1] (mouse, in vivo, po, 10 mg/kg) of 3.69 h.

One may read the clearance as a measure of how efficiently the substance is removed, as volume per time. Read a low clearance as inefficient removal. The half-life is the time needed for the level to fall by half in the phase considered. For orientation: AUC(0-t) means exposure summed from dosing to a finite time, without extrapolation to infinity. Low values mean low exposure, high ones high exposure. By AUC(0-inf) is commonly meant the area under the concentration-time curve extrapolated to infinity. Read a high AUC(0-inf) as high exposure. For the compound `CCOC(=O)C1=C(CN2CC(F)(F)C[C@H]2CCC(=O)O)NC(c2nccs2)=N[C@H]1c1ccc(F)cc1Br` [Example 6, 3-((R)-1-(((R)-6-(2-bromo-4-fluorophenyl)-5-(ethoxycarbonyl)-2-(thiazol-2-yl)-3,6-dihydropyrimidin-4-yl)methyl)-4,4-difluoropyrrolidin-2-yl)propanoic acid], the F in series [1] (setting [2]) is reported as 59.3%. In addition, the “absorption after intragastric administration (in words)” value (from here on “absorption”) in series [1] (ICR mice, po, 5 mg/kg) is given as “rapidly absorbed”. In addition, in series [1] (setting [3]), the clearance is 10.2 mL/min/kg, the half-life is 46.2 min, the AUC(0-t) was 3270 ng·h/mL and the AUC(0-inf) was determined as 3270 ng·h/mL. Besides, in series [1] (setting [3]), the Vd was found to be 0.38 L/kg. Besides, the Cmax in series [1] (setting [4]) came to 6560 ng/mL. Further, in series [1] (setting [5]), the Tmax was 4.8 min. Also, in series [1] (setting [6]), the half-life is 188 min, the AUC(0-t) was determined as 4840 ng·h/mL and the AUC(0-inf) stood at 4850 ng·h/mL. Further, the Cmax in series [1] (setting [7]) was 5410 ng/mL. In addition, the Tmax in series [1] (setting [8]) is 15 min.

On to `CCOC(=O)C1=C(CN2CC(F)(F)C[C@H]2CC(C)C(=O)O)NC(c2nccs2)=N[C@H]1c1ccc(F)cc1Br` (stereo partly drawn) [Example 8, 3-((R)-1-(((R)-6-(2-bromo-4-fluorophenyl)-5-(ethoxycarbonyl)-2-(thiazol-2-yl)-3,6-dihydropyrimidin-4-yl)methyl)-4,4-difluoropyrrolidin-2-yl)-2-methylpropanoic acid], for which the F in series [1] (setting [2]) is on record as 69.3%. In addition, in series [1] (ICR mice, po, 5 mg/kg), the “absorption” value is recorded as “rapidly absorbed”. Further, in series [1] (setting [3]), the clearance was 11.5 mL/min/kg, the half-life is 81 min, the AUC(0-t) is 2860 ng·h/mL and the total exposure AUC(0-inf) is 2870 ng·h/mL. Moreover, the Vd in series [1] (setting [3]) is 0.39 L/kg. In series [1] (setting [4]), the Cmax was 5790 ng/mL. For the same compound, the Tmax in series [1] (setting [5]) was found to be 4.8 min. In series [1] (setting [6]), this compound gave a half-life of 63 min, an AUC(0-t) of 4960 ng·h/mL and an AUC(0-inf) of 4970 ng·h/mL. Besides, the Cmax in series [1] (setting [7]) came to 4820 ng/mL. Moreover, in series [1] (setting [8]), the Tmax worked out at 15 min.

With `CCOC(=O)C1=C(CN2CC(F)(F)C[C@H]2C(C)CC(=O)O)NC(c2nccs2)=N[C@H]1c1ccc(F)cc1Br` (stereo partly drawn) [Example 9, 3-((S)-1-(((R)-6-(2-bromo-4-fluorophenyl)-5-(ethoxycarbonyl)-2-(thiazol-2-yl)-3,6-dihydropyrimidin-4-yl)methyl)-4,4-difluoropyrrolidin-2-yl)butanoic acid], the F in series [1] (setting [2]) is given as 60.2%. For the same compound, in series [1] (ICR mice, po, 5 mg/kg), the “absorption” value was “rapidly absorbed”. Also, in series [1] (setting [3]), the clearance is 10.3 mL/min/kg, the half-life is 82.2 min, the AUC(0-t) was 3230 ng·h/mL and the AUC(0-inf) came out at 3240 ng·h/mL. Also, in series [1] (setting [3]), the Vd turned out to be 0.33 L/kg. In addition, the Cmax in series [1] (setting [4]) is 6270 ng/mL. In addition, the Tmax in series [1] (setting [5]) is 4.8 min. In series [1] (setting [6]), the half-life is 63.6 min, the AUC(0-t) was 4860 ng·h/mL and the AUC(0-inf) was 4870 ng·h/mL. Also, in series [1] (setting [7]), the Cmax is 5460 ng/mL. For the same compound, the Tmax in series [1] (setting [8]) was 15 min.

In the case of `CCOC(=O)C1=C(CN2CC(F)C(C)(C)C2CCC(=O)O)NC(c2nccs2)=N[C@H]1c1ccc(F)cc1Br` (stereo partly drawn) [Example 39, 3-(1-(((R)-6-(2-bromo-4-fluorophenyl)-5-(ethoxycarbonyl)-2-(thiazol-2-yl)-3,6-dihydropyrimidin-4-yl)methyl)-4-fluoro-3,3-dimethylpyrrolidin-2-yl)propanoic acid], in series [1] (setting [2]), the F is 86.1%. Further, the “absorption” value in series [1] (ICR mice, po, 5 mg/kg) is given as “rapidly absorbed”. In addition, in series [1] (setting [3]), the clearance is 5.67 mL/min/kg, the half-life was 193 min, the AUC(0-t) came out at 5800 ng·h/mL and the AUC(0-inf) worked out at 5810 ng·h/mL. Moreover, in series [1] (setting [3]), the Vd amounted to 0.73 L/kg. Also, the Cmax in series [1] (setting [4]) was determined as 4260 ng/mL. Moreover, the Tmax in series [1] (setting [5]) was found to be 4.8 min. Besides, in series [1] (setting [6]), the half-life is 133 min, the AUC(0-t) amounted to 12500 ng·h/mL and the AUC(0-inf) was found to be 12500 ng·h/mL. The Cmax in series [1] (setting [7]) came out at 4900 ng/mL. Besides, the Tmax in series [1] (setting [8]) was determined as 30 min.

The values above are taken from patent US9498479B2, “Dihydropyrimidine compounds and their application in pharmaceuticals” (SUNSHINE LAKE PHARMA CO., LTD., priority 2013, dated 2016).
